ChEMBL document CHEMBL5126565, “Discovery of (2-phenylthiazol-4-yl)urea derivatives that induce neuronal differentiation from mesenchymal stem cells” (Bioorg Med Chem Lett, 2022)
Activity calls are given as the source filed them. The rule behind the calls is not given here.

Assays:
[1] = Solubility of compound in culture media; format: physicochemical
Mesenchymal stem cells [2] = assay: Cytotoxicity against human derived mesenchymal stem cells assessed as cell viability upto 20 uM measured after 4 days; format: toxicity, cell-based; details: 96 h, time 4 day
Mesenchymal stem cells [3] = assay: Effect on cell cycle progression in human derived mesenchymal stem cells upto 20 uM measured after 4 days; format: toxicity, cell-based; details: 96 h, time 4 day
Mesenchymal stem cells [4] = assay: Induction of neural differentiation in human derived mesenchymal stem cells assessed as neuron formation measured TuJI expression by immunohistochemical analysis; format: functional, cell-based; details: dose 2-5 µM
[5] = Induction of neural differentiation in human derived mesenchymal stem cells assessed as neuron formation at 5 uM measured TuJI expression by immunohistochemical analysis relative to control; format: functional

| SMILES | solubility [1] | Activity (Mesenchymal stem cells [2]) | Activity (Mesenchymal stem cells [3]) | Activity (Mesenchymal stem cells [4]) | fold change (FC) [5] | Activity (Mesenchymal stem cells [4]; DDE = dose-dependent effect) |
| --- | --- | --- | --- | --- | --- | --- |
| CN1CCN(C(=O)NCc2csc(-c3ccccc3)n2)CC1 | Soluble | Non-Toxic | Non-Toxic | Active |  |  |
| O=C(NCc1csc(-c2ccccc2)n1)N1CCOCC1 | Soluble | Non-Toxic | Non-Toxic |  | 2 | Dde |
